From patent US20230118911A1, “PROTEOLYSIS TARGETING CHIMERA (PROTAC) FOR DEGRADATION OF AURORA A-KINASE” (Julius-Maximilians-Universitaet Wuerzburg, priority 2020, published 2023)
One block for each compound: values may come before it.

Experiments:
Aurora-A [1] = target: T1, Aurora-A (Homo sapiens, UniProt O14965); assay: Immunoblot of endogenous Aurora-A in MV4-11 cells after a single dose of degrader; assay type: cell-based; parameters: resulting in degradation of endogenous Aurora-A; endogenous in cells; host or cells: MV4-11
T1 sequence (O14965 1-403): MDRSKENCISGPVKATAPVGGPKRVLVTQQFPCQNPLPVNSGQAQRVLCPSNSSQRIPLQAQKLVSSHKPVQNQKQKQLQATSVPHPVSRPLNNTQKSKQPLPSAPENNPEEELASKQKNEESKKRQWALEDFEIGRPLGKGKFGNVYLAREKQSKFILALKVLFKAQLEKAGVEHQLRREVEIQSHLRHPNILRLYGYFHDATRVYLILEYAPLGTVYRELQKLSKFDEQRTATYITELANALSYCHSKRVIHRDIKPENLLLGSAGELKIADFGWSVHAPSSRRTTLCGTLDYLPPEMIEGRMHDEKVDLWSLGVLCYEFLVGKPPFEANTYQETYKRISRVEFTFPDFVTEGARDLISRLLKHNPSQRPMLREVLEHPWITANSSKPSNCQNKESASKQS
Method: (§1) Then, the cells were lysed in RIPA lysis buffer (50 mM HEPES pH 7.9, 140 mM NaCl, 1 mM EDTA, 1% Triton X-100, 0.1% SDS, 0.1% sodium deoxycholate) containing protease and phosphatase inhibitors (Sigma) and incubated for 20 minutes at 4° C. in head-over-tail. Lysates were cleared by centrifugation. Protein quantification was done using BCA assay and equal amounts of proteins were separated by BisTris-PAGE and transferred to PVDF membranes (Millipore). The membranes were blocked with 5% (w/v) nonfat dry milk dissolved in TBS-T (20 mM Tris/HCl, pH 7.5, 150 mM NaCl, and 0.1% (v/v) Tween 20) at RT for 1 hour and then incubated with the primary antibody overnight at 4° C. Visualization was done with HRP-labeled secondary antibodies and detected using Chemiluminescent HRP substrate (Millipore) in LAS3000 or LAS4000 Mini (Fuji). The signal was quantified using ImageJ (version 1.52q) or Image Studio Lite (LI-COR Biosciences, Version 5.2.5). […] Error bars represent standard deviations of four biological replicate experiments.

MV4-11 cells [2] = assay: alamarBlue cell viability assay; assay type: cell-based; conditions: Homo sapiens, 1 μM (refreshed every 24 h), 72 hours, read-out: viable cells compared to control cells
Method: The alamarBlue assay (Thermo Fisher Scientific) was performed according to manufacturer's instruction using HS Cell Viability Reagent. The fluorescence was measured in Tecan Infinite-200 using a fluorescence excitation wavelength of 550 and an emission of 600 nm.

MV4-11 cells [3] = assay: Annexin-PI FACS apoptosis assay in MV4-11 cells; assay type: cell-based, human; conditions: 0.5 μM, 72 hours
Method: (§2) For Annexin-PI FACS, the medium in which the cells were cultured was combined with the cells.
(§3) The cells were washed once with ice-cold PBS, resuspended in 100 μl Annexin V Binding buffer (10 mM HEPES pH 7.4, 140 mM NaCl, 2.5 mM CaCl2)) with 2 μl of Annexin V/Pacific Blue dye and incubated for 15 minutes in the dark at room temperature. 400 μl Annexin V Binding buffer with propidium iodide (18.5 μM) was added and the samples were stored cold and in the dark until analysis.

IMR5 cells = assay: Annexin-PI FACS apoptosis assay in IMR5 cells with or without Aurora-A T217D expression; conditions: 0.5 μM, 72 hours, doxycycline-induced Aurora-A T217D vs EtOH control
Method: as §2, §3
Aurora-AT^217D is a functional mutant of Aurora-A. IMR5 cells express Aurora-A^T217D upon incubation with doxycycline (Dox) but not upon incubation with ethanol (control-EtOH).

Aurora-A [4] = target: T1, Aurora-A; assay: Immunoblot of endogenous Aurora-A, MV4-11 cells treated with various concentrations for 6 hours; assay type: cell-based; parameters: resulting in degradation of endogenous Aurora-A; endogenous in cells; host or cells: MV4-11
Method: as §1
Afterwards, cells were lysed in RIPA lysis buffer (50 mM HEPES pH 7.9, 140 mM NaCl, 1 mM EDTA, 1% Triton X-100, 0.1% SDS, 0.1% sodium deoxycholate) containing protease and phosphatase inhibitors (Sigma) and incubated for 20 minutes at 4° C. in head-over-tail. Further processing of resulting cell lysates and immunoblotting was performed as described above.

Compound: COc1cc(Nc2ncc3c(n2)-c2ccc(Cl)cc2C(c2c(F)cccc2OC)=NC3)ccc1C(=O)NCCOCCOCCC(=O)N[C@H](C(=O)N1C[C@H](O)C[C@H]1C(=O)NCc1ccc(-c2scnc2C)cc1)C(C)(C)C [JB160, VHL-PEG2-alisertib]
Aurora-A steady-state levels (Aurora-A [1]; single dose, VHL-ligand-based degraders): neither of the VHL-ligand-based degraders JB160 and JB161 reduced Aurora-A steady-state levels

Aurora-A levels (Aurora-A [4]; 10 nM): significantly decreased
Aurora-A degradation (Aurora-A [4]; 100 nM and 1 μM): almost complete degradation
Compound: COc1cc(Nc2ncc3c(n2)-c2ccc(Cl)cc2C(c2c(F)cccc2OC)=NC3)ccc1C(=O)NCCOCCOCCNC(=O)COc1cccc2c1C(=O)N(C1CCC(=O)NC1=O)C2=O (stereo not drawn) [JB170, thalidomide-PEG2-alisertib]
viability at 1 µM (MV4-11 cells [2]): 32%
Annexin-positive cells (MV4-11 cells [3]): 56%
effect of Aurora-A T217D expression on induced apoptosis (IMR5 cells): completely reverted the induction of apoptosis
Hook effect on Aurora-A depleting activity (Aurora-A [4]; high concentrations): reversal of the Aurora-A depleting activity was observed

Compound: COc1cc(Nc2ncc3c(n2)-c2ccc(Cl)cc2C(c2c(F)cccc2OC)=NC3)ccc1C(=O)O [alisertib, reference compound]
Aurora-A levels (Aurora-A [4]; 1 μM): did not decrease Aurora-A levels, but induced a significant increase

reduction of Aurora-A protein level (Aurora-A [1]; single dose (0.1 μM, 1 μM), compared to control cells): 62%
Compound: thalidomide-PEG3-alisertib [JB158]
